Experimental data: the supplement of paper PMC10307832

Key:
Assay in all cases: relative viability (nuclei count vs DMSO), 5 days (fraction); higher = more cells survive
Ponatinib + Alpelisib = compound: Cc1ccc(C(=O)Nc2ccc(CN3CCN(C)CC3)c(C(F)(F)F)c2)cc1C#Cc1cnc2cccnn12 [Ponatinib] + Cc1nc(NC(=O)N2CCC[C@H]2C(N)=O)sc1-c1ccnc(C(C)(C)C(F)(F)F)c1 [Alpelisib] (partner 2 µM)
Procedure, shortened: (§1)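 Lung cancer cell lines in 1536-well plates got either a single drug or a fixed anchor-drug dose together with five library-drug doses (not always all listed) in √10 steps, by pin tool, on the day after seeding. Nuclei were counted after 5 days, and relative viability is the treated-to-vehicle ratio of nuclei counts. Values are medians of duplicate plates.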

Ponatinib + Olaparib = compound: Cc1ccc(C(=O)Nc2ccc(CN3CCN(C)CC3)c(C(F)(F)F)c2)cc1C#Cc1cnc2cccnn12 [Ponatinib] + O=C(c1cc(Cc2n[nH]c(=O)c3ccccc23)ccc1F)N1CCN(C(=O)C2CC2)CC1 [Olaparib] (partner 8 µM)
Procedure, shortened: as §1

Pazopanib + Bortezomib = compound: Cc1ccc(Nc2nccc(N(C)c3ccc4c(C)n(C)nc4c3)n2)cc1S(N)(=O)=O [Pazopanib] + CC(C)C[C@H](NC(=O)[C@H](Cc1ccccc1)NC(=O)c1cnccn1)B(O)O [Bortezomib] (partner 0.002 µM)
Procedure, shortened: as §1

Pazopanib + Linsitinib = compound: Cc1ccc(Nc2nccc(N(C)c3ccc4c(C)n(C)nc4c3)n2)cc1S(N)(=O)=O [Pazopanib] + C[C@]1(O)C[C@@H](c2nc(-c3ccc4ccc(-c5ccccc5)nc4c3)c3c(N)nccn32)C1 [Linsitinib] (partner 1 µM)
Procedure, shortened: as §1

Row | Cell Line | relative viability (Ponatinib + Alpelisib; first compound 0.002 µM) | relative viability (Ponatinib + Alpelisib; first compound 0.006325 µM) | relative viability (Ponatinib + Alpelisib; first compound 0.06325 µM) | relative viability (Ponatinib + Alpelisib; first compound 0.2 µM) | relative viability (Ponatinib + Olaparib; first compound 0.002 µM) | relative viability (Ponatinib + Olaparib; first compound 0.006325 µM) | relative viability (Ponatinib + Olaparib; first compound 0.06325 µM) | relative viability (Ponatinib + Olaparib; first compound 0.2 µM) | relative viability (Pazopanib + Bortezomib; first compound 0.01 µM) | relative viability (Pazopanib + Bortezomib; first compound 0.03162 µM) | relative viability (Pazopanib + Bortezomib; first compound 0.1 µM) | relative viability (Pazopanib + Bortezomib; first compound 0.3162 µM) | relative viability (Pazopanib + Bortezomib; first compound 1 µM) | relative viability (Pazopanib + Linsitinib; first compound 0.01 µM) | relative viability (Pazopanib + Linsitinib; first compound 0.03162 µM) | relative viability (Pazopanib + Linsitinib; first compound 0.1 µM) | relative viability (Pazopanib + Linsitinib; first compound 0.3162 µM) | relative viability (Pazopanib + Linsitinib; first compound 1 µM)
1 | HCC-44 | 0.802 | 0.897 | 0.92 | 0.794 | 0.942 | 0.997 | 0.923 | 0.929 | 0.942 | 0.877 | 0.891 | 0.899 | 0.989 | 0.575 | 0.673 | 0.678 | 0.582 | 0.722
2 | HCC-827 | 1.01 | 0.987 | 1.01 | 1.01 | 0.719 | 0.644 | 0.709 | 0.687 | 0.963 | 1.06 | 1.06 | 1.05 | 1.03 | 1.01 | 0.935 | 0.938 | 0.933 | 0.849
3 | NCI-H2405 | 0.86 | 0.922 | 0.98 | 0.666 | 0.784 | 0.796 | 0.95 | 0.776 | 0.925 | 0.981 | 0.997 | 0.982 | 0.982 | 0.729 | 1.12 | 1 | 1.12 | 1.02
4 | PC-3 [JPC-3] | 1 | 1.09 | 1.02 | 1.09 | – | 1.15 | 1.3 | 1.09 | 0.957 | 0.948 | 0.814 | 0.868 | 0.774 | 0.993 | 0.972 | 0.961 | 0.918 | 0.961
5 | NCI-H1651 | 0.867 | 1.06 | 1.07 | 0.991 | 0.197 | 0.195 | 0.18 | 0.177 | 0.753 | 0.954 | 0.965 | 0.97 | 0.916 | 1.11 | 0.901 | 0.886 | 0.982 | 1.08
6 | HARA | 0.779 | 0.79 | 0.97 | 0.729 | 0.757 | 0.825 | 0.777 | 0.874 | 1.14 | 1.08 | 1.25 | 1.22 | 1.08 | 0.916 | 0.862 | 1 | 1.03 | 1.03
7 | NCI-H1650 | – | – | – | – | 0.919 | 0.884 | 0.916 | 0.751 | 0.204 | 0.212 | 0.235 | 0.191 | 0.21 | – | – | – | – | –
8 | NCI-H1793 | 0.677 | 0.946 | 0.907 | 0.729 | 0.882 | 0.986 | 1.01 | 0.756 | – | – | – | – | – | – | 0.871 | 0.835 | 0.83 | 0.905
9 | NCI-H2347 | 1 | 1.1 | 1.18 | 1.02 | 0.546 | 0.604 | 0.625 | 0.547 | – | – | 1.23 | 0.95 | 0.997 | 0.854 | 1.01 | 1.1 | 1.09 | 1.12
10 | LU99A | 0.519 | 0.453 | 0.62 | 0.466 | 0.259 | 0.246 | 0.255 | 0.255 | 0.913 | 1.18 | 1.18 | 1.25 | 1.25 | 0.377 | 0.522 | 0.589 | 0.565 | 0.52
11 | NCI-H1355 | 0.832 | 0.87 | 1.01 | 0.917 | 0.668 | 0.709 | 0.817 | 0.739 | – | 1.17 | 1.21 | 1.21 | 1.35 | – | 0.909 | 0.921 | 0.856 | 0.861
12 | HCC-78 | 0.321 | 0.301 | 0.408 | 0.323 | 0.836 | 0.819 | 0.825 | 0.726 | 0.408 | 0.453 | 0.498 | 0.414 | 0.619 | 0.403 | 0.578 | 0.435 | 0.454 | 0.668
13 | NCI-H1563 | 0.998 | 0.953 | 1 | 0.789 | – | – | – | – | 0.788 | 0.873 | 0.947 | 0.913 | 0.985 | 1.13 | 1.18 | 1.25 | 1.3 | 1.18
14 | HCC-15 | 0.82 | 0.906 | 0.988 | 0.805 | 0.673 | 0.721 | 0.767 | 0.738 | 1.05 | 1.18 | 1.04 | 0.976 | 1.05 | 0.872 | 0.905 | 0.94 | 0.882 | 1.03
15 | EKVX | 0.805 | 0.936 | 1.15 | 0.898 | 0.956 | 0.897 | 0.971 | 0.767 | 1.09 | 1.02 | 1 | 0.996 | 1.02 | 0.95 | 1.04 | 0.869 | 1.03 | 1.04
16 | NCI-H2087 | 0.812 | 0.84 | 0.932 | 0.879 | 0.514 | 0.609 | 0.635 | 0.497 | 0.979 | 0.909 | 0.804 | 0.798 | 0.879 | 1.02 | 0.967 | 1.13 | 0.841 | 0.895
17 | LK-2 | 1.12 | 1.05 | 1.17 | 0.668 | 0.584 | 0.759 | 0.661 | 0.435 | – | – | – | – | – | 0.486 | 0.564 | 0.475 | 0.517 | 0.524
18 | NCI-H1437 | 0.952 | 0.969 | 1.17 | 1.03 | 0.598 | 0.595 | 0.654 | 0.623 | 0.617 | 0.537 | 0.428 | 0.518 | 0.583 | 1.04 | 1.07 | 0.973 | 1.04 | 1.05
19 | COR-L23 | 0.747 | 0.775 | 0.844 | 0.778 | 0.277 | 0.349 | 0.335 | 0.303 | 1.23 | 1.08 | 1.12 | 0.935 | 1.02 | 1.02 | 1.01 | 0.988 | 1.15 | 0.975
